This note sets out measurements from ChEMBL document CHEMBL5532715, “Rogersonins C-F, 9H-Imidazo[2,1-i]purine-Incorporating Adenine-Polyketide Hybrids from an Ophiocordyceps-Associated Clonostachys rogersoniana” (2024).

The source made the active and inactive calls. No cut-off for these calls is given here.

A short description of assay [1]: Downregulation of cell surface PD-L1 expression in human MDA-MB-231 cells assessed as mean fluorescence intensity at […] incubated for 24 hrs by phycoerythrin staining based flow cytometry analysis (reference value: 1156). The assay is classed as functional.
The test system of assay [2] is MCF7. Nature of the assay: Antiproliferative activity against human MCF7 cells incubated for 72 hrs by MTT assay. The assay is classed as functional, cell-based.
Assay [3] deals with MDA-MB-231. Nature of the assay: Antiproliferative activity against human MDA-MB-231 cells incubated for 72 hrs by MTT assay. Format: functional, cell-based.
In assay [4] the test system is A549. Nature of the assay: Antiproliferative activity against human A549 cells incubated for 72 hrs by MTT assay. The assay is classed as functional, cell-based.
The nature of assay [5]: Downregulation of cell surface PD-L1 protein expression in human MDA-MB-231 cells assessed as test to control ratio at 5 uM incubated for 24 hrs by Western blot analysis. Format: functional. (In general: Immunoblotting shows a protein as a band on a membrane.)
For assay [6], the system named is A549. As to the kind of experiment: Effect on CD274 mRNA expression in human A549 cells at 5 to 10 uM hrs by real-time quantitative-PCR analysis. As to conditions: dose 5-10 µM. Format: functional, cell-based.
Assay [7] is described as follows: Downregulation of cell surface PD-L1 protein expression in human MDA-MB-231 cells assessed as test to control ratio at 10 uM incubated for 24 hrs by Western blot analysis. The assay is classed as functional.
In assay [8] the test system is MDA-MB-231. As to the kind of experiment: Effect on CD274 mRNA expression in human MDA-MB-231 cells at 5 to 10 uM hrs by real-time quantitative-PCR analysis. The assay is classed as functional, cell-based. As to conditions: dose 5-10 µM.
Assay [9] can be described thus: Downregulation of cell surface PD-L1 protein expression in human A549 cells assessed as test to control ratio at 10 uM incubated for 24 hrs by Western blot analysis. Format: functional.
Assay [10] in a line: Downregulation of cell surface PD-L1 protein expression in human A549 cells assessed as test to control ratio at 5 uM incubated for 24 hrs by Western blot analysis. Format: functional.
Assay [11] in a line: Downregulation of cell surface PD-L1 expression in human MDA-MB-231 cells assessed as mean fluorescence intensity at 5 uM incubated for 24 hrs by phycoerythrin staining based flow cytometry analysis (reference value: 1156). Format: functional.
Assay [12] can be described thus: Downregulation of cell surface PD-L1 expression in human MDA-MB-231 cells assessed as mean fluorescence intensity at 10 uM incubated for 24 hrs by phycoerythrin staining based flow cytometry analysis (reference value: 1156). The assay is classed as functional. A general note: In flow cytometry, cells or beads pass a laser one at a time.

As for `CN(C)C(=N)NC(=N)N` [METFORMIN], in [1], the Flu intensity is recorded as 1081.

On to `CO[C@@H]1[C@H](O)[C@@H](CO)O[C@H]1n1cnc2c1ncn1c3c(nc21)[C@H](C)OC(=O)/C=C/[C@@H](O)CC[C@H](C)OC(=O)C3`, for which the result in assay [2], in [3] and in assay [4] was inactive.

Take `C[C@@H]1OC(=O)/C=C/[C@@H](O)CC[C@H](C)OC(=O)[C@H](n2cnc3c2ncn2c4c(nc32)[C@H](C)OC(=O)/C=C/[C@@H](O)CC[C@H](C)OC(=O)C4)CC1=O`: the outcome in assay [2], in [3] and in assay [4] was inactive.

Turning to `C[C@@H]1OC(=O)/C=C/[C@@H](O)CC[C@H](C)OC(=O)[C@H](n2cnc3ncn4c5c(nc4c32)[C@H](C)OC(=O)/C=C/[C@@H](O)CC[C@H](C)OC(=O)C5)CC1=O`, the result in assay [2], in assay [3] and in assay [4] was inactive.

With `C[C@@H]1OC(=O)/C=C/[C@@H](O)CC[C@H](C)OC(=O)Cc2c1nc1c3ncn([C@@H]4O[C@H](CO)[C@@H](O)[C@H]4O)c3ncn21`, the result in assay [2], in assay [3], in assay [6], in assay [4] and in assay [8] was inactive. The T/C in assay [5] stood at 0.89; in assay [7], 0.54; in [9], 0.32; in [10], 0.6. In addition, the Flu intensity in assay [11] came to 897; in assay [12], 820.
